From patent publication US9751862B2, “Pesticidally active substituted pyridyl carboxamides” (Syngenta Participations AG, priority 2014, dated 2017) come the findings set out here.

By mortality is commonly meant the percentage killed.

Read-outs that look alike come from different tables or passages of the source.

Holding throughout (format): in vivo
In experiment [1] the test system is Myzus persicae (Green Peach Aphid). Description: Activity against Myzus persicae (mixed population, feeding/residual contact activity, preventive), sunflower leaf discs. As to conditions: foliar, 144 h, read-out: activity (mortality). The protocol:
Sunflower leaf discs were placed on agar in a 24-well microtiter plate and sprayed with test solutions. After drying, the leaf discs were infested with an aphid population of mixed ages. After an incubation period of 6 days, samples were checked for mortality and special effects (e.g. phytotoxicity).

For experiment [2] the test system is unchanged. Description: Activity against Myzus persicae (mixed population, systemic/feeding activity, curative), pea seedlings. Conditions: 144 h, pea seedling roots in test solution, 6 days after introduction. An excerpt: Example B2: Activity Against Myzus persicae (Green Peach Aphid) (Mixed Population, Systemic/Feeding Activity, Curative)
Pea seedlings, infested with an aphid population of mixed ages, were placed with the roots directly in the test solutions. 6 days after introduction, samples were checked for mortality and special effects on the plant.

The next experiment concerns Bemisia tabaci. Description: Activity against Bemisia tabaci (adults on cotton, contact, preventative). As to conditions: foliar, 168 h, sprayed cotton leaf discs, adult white flies, 7 DAT. The protocol:
Example B3: Activity Against Bemisia tabaci, (Adults on Cotton, Contact, Preventative)
Cotton leaf discs are placed on agar in a 24-well microtiter plate and sprayed with test solutions. After drying, the leaf discs are infested with adult white flies. After an incubation period of 7 DAT, samples are checked for mortality and special effects (e.g. phytotoxicity).

Experiment [3] has as its system Frankliniella occidentalis (Western Flower Thrips). The experiment is described as follows: Activity against Frankliniella occidentalis (mixed population, contact/feeding), bean plants. Conditions: 200 ppm; sprayed bean plants; 14 days after infestation. The method, then: Example B4: Activity Against Frankliniella occidentalis (Western Flower Thrips) (Mixed Population, Contact/Feeding)
Bean plants were treated with diluted test solutions in a spray chamber. After drying, plants were infested with a thrips population of mixed ages. 14 days after the infestation, samples were checked for damage reduction compare to the non treated samples.

[4] abbreviates: 200 ppm, sprayed sunflower leaf discs, 6 days incubation.

Turning to `Cc1cc(CC#N)cnc1-n1ncc(C(=O)N(C)c2cccnc2)c1C` [Compound 1.001, 1-[5-(cyanomethyl)-3-methyl-2-pyridyl]-N,5-dimethyl-N-(3-pyridyl)pyrazole-4-carboxamide], the mortality at 200 ppm in experiment [1] (setting [4]) was at least 80%; in the experiment on Bemisia tabaci, above 80%. In experiment [2], this compound returned a mortality at 24 ppm above 80%.

As for `Cc1cc(C2(C#N)CC2)cnc1-n1ncc(C(=O)N(C)c2cccnc2)c1C` [Compound 1.002, 1-[5-(1-cyanocyclopropyl)-3-methyl-2-pyridyl]-N,5-dimethyl-N-(3-pyridyl)pyrazole-4-carboxamide], in experiment [1] (setting [4]), the mortality at 200 ppm was at least 80%. The compound also returned a mortality at 24 ppm in experiment [2] above 80%.

Turning to `Cc1cc(C(C)C#N)cnc1-n1ncc(C(=O)N(C)c2cccnc2)c1C` (stereo not shown) [Compound 1.003, 1-[5-(1-cyanoethyl)-3-methyl-2-pyridyl]-N,5-dimethyl-N-(3-pyridyl)pyrazole-4-carboxamide], the mortality at 200 ppm in experiment [1] (setting [4]) is at least 80%. Further, the “activity (damage reduction compared to non treated samples)” value in experiment [3] is “over 80%”.

For `Cc1cc(C(C)(C)C#N)cnc1-n1ncc(C(=O)N(C)c2cccnc2)c1C` [Compound 1.004, 1-[5-(1-cyano-1-methyl-ethyl)-3-methyl-2-pyridyl]-N,5-dimethyl-N-(3-pyridyl)pyrazole-4-carboxamide], the mortality at 200 ppm in experiment [1] (setting [4]) is at least 80%. In experiment [2], the mortality at 24 ppm is above 80%.

For the compound `Cc1cc(/C(C#N)=N/O)cnc1-n1ncc(C(=O)N(C)c2cccnc2)c1C` [Compound 1.007, 1-[5-[(Z)-C-cyano-N-hydroxy-carbonimidoyl]-3-methyl-2-pyridyl]-N,5-dimethyl-N-(3-pyridyl)pyrazole-4-carboxamide], in experiment [1] (setting [4]), the mortality at 200 ppm was at least 80%. Also, the mortality at 24 ppm in experiment [2] is above 80%.

In the case of `CCO/N=C(\C#N)c1cnc(-n2ncc(C(=O)N(C)c3cccnc3)c2C)c(C)c1` [Compound 1.008, (3E/Z)-N-ethoxy-5-methyl-6-[5-methyl-4-[methyl(3-pyridyl)carbamoyl]pyrazol-1-yl]pyridine-3-carboximidoyl cyanide], the mortality at 200 ppm in experiment [1] was at least 80%.

Consider `CCOC(=O)C(CC)c1cnc(-n2ncc(C(=O)N(C)c3cccnc3)c2C)c(C)c1` (stereo not shown) [Compound 1.009], for which, in experiment [1] (setting [4]), the mortality at 200 ppm was at least 80%.
